Where “and” joins values, the source holds several entries; their conditions need not be identical. Equal entries are not always repeated. Where two headings read alike, the source gives them in different places. Each block holds one molecule with its values, some of them ahead of it.
Experiments:
[1] = design: method as in doi:10.19378/j.issn.1003-9783.2020.12.010; conditions: rats, oral administration of ALL; cited from earlier work
[2] = rat liver S9 fractions; cited from earlier work
[3] = Metabolite identification in plasma and feces after intravenous PRO or ALL (LC-Q-TOF-MS)
Experimental: (§1) Nine hens were allocated to the metabolic study. These birds were randomly divided into three groups (n = 3 per group): the blank control group, the PRO group, and the ALL group.
(§2) Plasma: Blood samples were collected from the subcutaneous ulnar vein at 5, 10, 20, 30, 60, and 120 min post-administration. Samples were centrifuged at 4 °C and 3200× g for 10 min. The supernatant (plasma) was collected and stored at −80 °C for subsequent metabolite analysis.
(§3) Feces: Feces were collected over the intervals 0–6 h, 6–12 h, 12–24 h, and 24–48 h following intravenous administration. All fecal samples were immediately stored at −80 °C.
(§4) Plasma: Plasma samples stored at −80 °C were thawed at room temperature. A pooled plasma sample was prepared by combining equal volumes of plasma from each designated collection timepoint. A 200 μL aliquot of this pooled plasma was precisely transferred into a 1.5 mL microcentrifuge tube. Subsequently, 800 μL of acetonitrile was added to precipitate proteins, and the mixture was vortex-mixed vigorously for 2 min. Following protein precipitation, the tube was sealed and sonicated for 20 min. The sample was then centrifuged at 12,000× g for 10 min. The resulting supernatant was carefully collected and evaporated to dryness under a gentle stream of nitrogen at room temperature. The dried residue was reconstituted in 200 μL of acetonitrile, vortex-mixed for 2 min, and centrifuged again at 12,000× g for 5 min. Finally, the supernatant was filtered through a 0.22 μm organic membrane filter prior to LC-MS/MS analysis.
(§5) Feces: Fecal samples stored at −80 °C were thawed at room temperature and homogenized. A 2.00 g aliquot of the homogenized feces was accurately weighed into a 50 mL centrifuge tube. Ten milliliters of acetonitrile, serving as the extraction solvent, was added to the sample, which was then vortex-mixed for 5 min. The tube was sealed and subjected to sonication for 20 min.

[4] = Residues of PRO and ALL in laying hens' tissues and eggs after 56-day dietary Bopu Powder (LC-QQQ-MS); conditions: mean ± sd; for concentration at 56 days: female, Roman Gray, chicken (laying hens), in vivo, n = 6, LOD 1 ng/g wet weight
Experimental: Throughout the experimental period, the hens were housed in cages under standard laboratory conditions, with ad libitum access to feed and water. Following a 7-day acclimatization period, standardized feeding regimens and routine health management procedures, including biosecurity protocols, were implemented. […] Three experimental groups were established: CN (control, no additive), BP (50 mg/kg additive), and BPX (500 mg/kg additive). The study employed a randomized design with 6 replicates per group and 18 hens per replicate. The feeding trial duration was 56 days.
Additionally, at the end of week 8, from each replicate group, one hen was randomly selected. A 10 mL blood sample was collected from the subcutaneous ulnar vein; 5 mL was transferred into an EDTA-K2 anticoagulant tube, gently mixed, and centrifuged at 3000× g for 10 min. The separated plasma was transferred into EP tubes (Eppendorf tubes) and stored at −20 °C for residue analysis.
Eggs: During weeks 4 and 8 of the trial, two eggs per replicate group, approximating the mean egg weight, were collected and stored at 4 °C until analysis.
Segments of jejunum, ileum, liver, ovary, oviduct, uterus, pectoral muscle, thigh muscle, gizzard, abdominal fat, and subcutaneous fat were individually wrapped in aluminum foil, flash-frozen in liquid nitrogen, and stored at −80 °C pending analysis.
Eggs: Two grams of homogenized whole egg liquid was transferred into a 50 mL centrifuge tube containing homogenization beads. Twenty microliters of the 1 mg/L internal standard (IS) working solution was precisely added, followed by vortex mixing for 30 s. Subsequently, 10 mL of acetonitrile was added and the mixture was vortex-mixed for 5 min to facilitate extraction. The sample was then centrifuged at 8000× g for 5 min. Five milliliters of the resulting supernatant was transferred to a ten-milliliter centrifuge tube, combined with three milliliters of n-hexane, and vortex-mixed for 1 min. After phase separation, the upper n-hexane layer was carefully removed using a rubber-bulb pipette. Then, 1 mL of the lower aqueous acetonitrile phase was collected, evaporated to dryness under a nitrogen stream, and reconstituted in 0.5 mL of acetonitrile with 30 s of vortex mixing. The final extract was filtered through a 0.22 μm organic solvent-compatible membrane prior to LC-MS/MS analysis. Only two quality control (QC) measures were implemented: parallel duplicate samples, and blank/carryover checks.
Tissues: Tissue samples stored at −80 °C were thawed to room temperature. Approximately 2 g of tissue was weighed into a 50 mL screw-cap centrifuge tube. Twenty microliters of freshly prepared 20 mg·L^−1 IS solution and 1 mL of physiological saline were added.

[5] = cited from earlier work
[6] = cited from earlier work; remark: listed apart in the source
[7] = design: method as in PMID 39805195; conditions: broiler hepatic microsomes, stable isotope tracing; cited from earlier work
[8] = porcine liver S9 fractions; cited from earlier work
[9] = system: carbon tetrachloride, acetaminophen, and simvastatin-induced hepatotoxicity; design: method as in PMID 9782072; conditions: PRO 11–22 mg/kg body weight; cited from earlier work
[10] = rat, in vivo; cited from earlier work
[11] = in vivo, iv, 1 mg/kg
Experimental: as §1, §2, §3, §4, §5

[12] = BPX group: 500 mg/kg Bopu Powder in diet, 56 days, n = 6, LOD 1 ng/g wet weight

Molecule: COc1ccc2c(c1OC)CN(C)CCc1cc3c(cc1C(=O)C2)OCO3 [ALL, allocryptopine]
- number of metabolites identified, including isomers [1]: 25
- number of metabolites detected [2]: eight
- number of metabolites detected in pooled plasma ([3]; intravenous 1 mg/kg bw, pooled plasma 5 to 120 min post-administration): seven
- number of metabolites identified in plasma and feces ([3]; intravenous 1 mg/kg·bw, blood 5–120 min, feces 48 h collection): 9
- residues in kidney ([4]; BP group: 50 mg/kg Bopu Powder in diet, 56 days, n = 6, LOD 1 ng/g wet weight): 6.59 ± 4.61 ng/g
- residues in eggs [4, 12]: 12.29 ng/g and 12.29 ± 4.69 ng/g
- residues in kidney [4, 12]: 7.92 ± 4.12 ng/g
- residues in liver [4, 12]: 56.14 ± 9.39 ng/g
- concentration at 56 days ([4]; 50 mg/kg, residues in kidney, BP group: 50 mg/kg Bopu Powder in diet): 6.59 ng/g
- concentration at 56 days ([4]; 500 mg/kg, residues in kidney, BPX group: 500 mg/kg Bopu Powder in diet): 7.92 ng/g
- concentration at 56 days ([4]; 500 mg/kg, residues in liver, BPX group: 500 mg/kg Bopu Powder in diet): 56.1 ng/g
- residues in urine, feces, plasma, and various tissues ([5]; rats, following ALL administration): < 3 ng/g
- residues in eggs throughout ([6]; 400 mg/kg feed Bopu Powder, 7 days): undetectable
- residual levels 1 day after withdrawal ([6]; 2000 mg/kg feed Bopu Powder, 7 days): 8.61 µg/kg
- residues 7 days post-withdrawal ([6]; 2000 mg/kg feed Bopu Powder): residues persisted
- number of key metabolites identified [7]: five
- number of metabolites detected [8]: four

- number of metabolites detected in fecal samples [11]: Eleven
- number of metabolites detected in pooled plasma [11]: two
- number of metabolites identified in plasma and feces [11]: 12
Molecule: protopine
- hepatoprotective effect [9]: effectively counteracts carbon tetrachloride, acetaminophen, and simvastatin-induced hepatotoxicity
- highest residual level, liver at 48 h ([5]; rat, in vivo): 20.64 ng/g
- highest residual level, spleen at 24 h ([5]; rat, in vivo): 44.04 ng/g
- highest residue level, liver at 48 h (second statement) ([5]; rat, in vivo): 61.8 ng/g
- residue levels in other tissues (second statement) ([5]; rat, in vivo): below 6.5 ng/g
- time until concentrations fell below LOQ (10 ng/mL) [10]: ≤ 8 h
